Literature values in US20060257483A1, “Controlled release bupropion dosage forms” (ABRIKA Pharmaceuticals, priority 2005, published 2006).
Structures can show the parent of a compound that is named as a salt.

Conditions: powder

Q: Which solubility in water does the source give for CC(NC(C)(C)C)C(=O)c1cccc(Cl)c1 (stereo not shown) [bupropion hydrochloride] here?
A: The solubility in water was “highly soluble in water”.
